Values joined by “and” are separate entries in the source; they are usually repeats but may differ in a detail not shown here. Identical values can stand only once. Like-named read-outs stand apart in the source and are kept apart here.
Legend:
[1] = molecular target: PDGFRα (Homo sapiens (Human), UniProt P16234); test: PDGFRα kinase enzyme assay (Promega PDGFRα Kinase Enzyme System, ADP-Glo); type: biochemical; details: 150 uM ATP
Method in brief: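 Read-out was ADP-Glo: remaining ATP depleted, ADP converted to luminescence and compared with a standard curve.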

[2] = tested on: Oligodendrocyte progenitor cells (OPCs); test: In vitro OPC differentiation assay, MBP expression (immunocytochemistry); details: 72 hours of treatment; fold change over vehicle
[3] = tested on: GPR17+ cells (newly differentiated oligodendrocytes); test: In vivo OPC differentiation, GPR17+ cells in brain
[4] = tested on: Oligodendrocyte progenitor cells (OPCs); test: In vitro OPC differentiation assay, GPR17 expression (immunocytochemistry); details: 72 hours, fold change over vehicle; for GPR17 Fold Induction (Over Vehicle; 3 μM): 3 μM (10× concentration, final 0.3 μM); for GPR17 Fold Induction (Over Vehicle; 5 μM): 5 μM (10× concentration, final 0.5 μM)
Description: To assess the effects of the PDGFRα inhibitors on OPC differentiation, primary OPCs were cultured and exposed to compounds. The number of newly generated oligodendrocytes was assessed by monitoring GPR17 expression. GPR17 is preferentially expressed in actively differentiating oligodendrocytes, allowing them to be distinguished from precursors and more differentiated oligodendrocytes.
Cortices from postnatal day (P) 1-3 rats were dissected and collected into ice cold Hank's Balanced Salt Solution (HBSS). […] Briefly, the cortical cell suspension was centrifuged and washed with buffer (0.5% BSA in PBS) and labeled with Anti-A2B^5 MicroBeads (10 μL beads per 1×10^7 cells) for 15 minutes at 4° C. Following the incubation, cells were washed once with BSA buffer to remove unlabeled beads. A2B^5 positive cells were eluted on the column using the AutoMACS® (Miltenyi, as per manufacturer's protocol using “Possel-s” program). Eluted cells were further washed twice with OPC growth media. Cell counts were performed using Countess III cell counter (ThermoFisher; AMQAX2000) and cells were plated.
The plates were allowed to sit at room temperature for 15 minutes to ensure proper dispersion of cells in a well. The plates were then transferred to the incubator (37° C.; 5% CO2).
Cells were then incubated for 72 hours at 37° C., 5% CO2 before immunostaining for GPR17 marker expression.
Following 72 hours in culture, cells were fixed with 4% paraformaldehyde for 15 minutes and then washed three times in Dulbecco's phosphate buffered saline (DPBS). Prior to immunostaining, cells were treated with a blocking solution (10% normal goat serum containing 1% BSA and 0.1% Triton® X-100 in DPBS) for 15 minutes at room temperature. Primary antibody (anti-GPR17 at 1:2000; Origene TA811615) was applied to cells overnight at 4° C. in incubation solution containing 1% normal goat serum, 1% BSA, and 0.1% Triton X-100 in DPBS. […] The secondary antibody was applied in incubation solution for 2 hours at room temperature, protected from light.
The number of differentiated GPR17+ cells was normalized to the total nuclei count and percent differentiated GPR17+ cells were reported. Statistical analysis was done using one-way ANOVA with multiple comparisons and post-hoc Tukey test in GraphPad Prism (GraphPad Software).

[5] = 11-point dose response, 10,000 nM to 0.169 nM, BLQ = below limit of quantitation, read-out: IC50 Values on PDGFRα Kinase Inhibition, IC50
[6] = Mus musculus, po, 24 h, read-out: GPR17 Fold Induction (Over Vehicle)
[7] = 11-point dose response, 10,000 nM to 0.169 nM, BLQ = below limit of quantitation

Sequence of PDGFRα (P16234 24-1089): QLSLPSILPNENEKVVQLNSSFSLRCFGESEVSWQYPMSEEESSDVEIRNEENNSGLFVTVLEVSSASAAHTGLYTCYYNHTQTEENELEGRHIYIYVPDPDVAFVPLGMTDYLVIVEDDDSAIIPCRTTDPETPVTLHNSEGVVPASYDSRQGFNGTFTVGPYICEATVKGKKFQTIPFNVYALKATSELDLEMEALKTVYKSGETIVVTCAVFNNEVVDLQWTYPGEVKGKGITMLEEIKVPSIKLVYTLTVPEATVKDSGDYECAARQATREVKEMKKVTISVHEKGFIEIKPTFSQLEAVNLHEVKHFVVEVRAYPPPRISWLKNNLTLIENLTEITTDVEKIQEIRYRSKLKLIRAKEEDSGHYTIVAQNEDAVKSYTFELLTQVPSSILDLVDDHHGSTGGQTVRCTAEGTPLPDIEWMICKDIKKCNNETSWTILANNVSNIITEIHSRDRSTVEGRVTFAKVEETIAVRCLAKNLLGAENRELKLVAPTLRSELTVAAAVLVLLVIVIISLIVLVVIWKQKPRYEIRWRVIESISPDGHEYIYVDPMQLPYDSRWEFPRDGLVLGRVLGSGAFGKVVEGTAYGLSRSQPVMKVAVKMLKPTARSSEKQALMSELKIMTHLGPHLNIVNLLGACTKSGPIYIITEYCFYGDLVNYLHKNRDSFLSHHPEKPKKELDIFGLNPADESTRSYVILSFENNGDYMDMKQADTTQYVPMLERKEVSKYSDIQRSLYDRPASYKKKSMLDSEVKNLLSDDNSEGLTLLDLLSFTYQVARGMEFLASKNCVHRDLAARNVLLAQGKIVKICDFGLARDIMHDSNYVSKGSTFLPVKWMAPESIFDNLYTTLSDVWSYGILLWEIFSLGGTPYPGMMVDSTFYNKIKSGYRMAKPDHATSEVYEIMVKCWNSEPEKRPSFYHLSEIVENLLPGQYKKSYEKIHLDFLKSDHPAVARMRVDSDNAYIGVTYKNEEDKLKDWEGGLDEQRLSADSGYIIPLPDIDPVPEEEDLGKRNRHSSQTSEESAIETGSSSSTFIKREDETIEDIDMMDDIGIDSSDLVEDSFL

Row | Compound | IC50 [1, 5] [nM] | MBP Fold Induction (Over vehicle) [2] | fold induction at 3 mg/kg [3, 6] | GPR17 Fold Induction (Over Vehicle; 3 μM) [4] | GPR17 Fold Induction (Over Vehicle; 5 μM) [4] | further results
1 | Cn1cc(-c2ccc3c(N4CCN(c5ncc(C(O)CCc6ccccc6)cn5)CC4)cnn3c2)cn1 (stereo not drawn) [Compound 175, 1-(2-(4-(6-(1-methyl-1H-pyrazol-4-yl)pyrazolo[1,5-a]pyridin-3-yl)piperazin-1-yl)pyrimidin-5-yl)-3-phenylpropan-1-ol] | 220 | 6.20 | 5.15 | 6.34 |  | 
2 | Cn1cc(-c2ccc3c(N4CCN(C(=O)CCc5ccccc5)CC4)cnn3c2)cn1 [Compound 1, 6-(1-methyl-1H-pyrazol-4-yl)-3-[4-(3-phenylpropanoyl)piperazin-1-yl]pyrazolo[1,5-a]pyridine] | 4010 | 9.82 |  | 5.25 | 2.94 | fold induction at 3.3 mg/kg [3, 6]: 1.06
3 | Cc1ccc([C@@H](C)OC(=O)N2CCN(c3cnn4cc(-c5cnn(C)c5)ccc34)CC2)cc1 [Compound 267, (1R)-1-(4-methylphenyl)ethyl 4-[6-(1-methyl-1H-pyrazol-4-yl)pyrazolo[1,5-a]pyridin-3-yl]piperazine-1-carboxylate] |  | 2.33 | 5.75 | 5.62 |  | IC50 Values on PDGFRα Kinase Inhibition, IC50 (nM) [1, 7]: BLQ; fold induction at 6 mg/kg [3, 6]: 7.52
4 | Cn1cc(-c2ccc3c(N4CCN(c5ncc(C(O)c6ccccn6)cn5)CC4)cnn3c2)cn1 (stereo not drawn) [Compound 59, (2-{4-[6-(1-methyl-1H-pyrazol-4-yl)pyrazolo[1,5-a]pyridin-3-yl]piperazin-1-yl}pyrimidin-5-yl) (pyridin-2-yl)methanol] | 168 | 2.56 | 10.6 | 5.49 |  | 
5 | Cn1cc(-c2ccc3c(N4CCN(c5ncc(C(C)(N)c6ccc(F)cc6)cn5)CC4)cnn3c2)cn1 (stereo not drawn) [Compound 35, 1-(4-fluorophenyl)-1-(2-{4-[6-(1-methyl-1H-pyrazol-4-yl)pyrazolo[1,5-a]pyridin-3-yl]piperazin-1-yl}pyrimidin-5-yl)ethanamine] | 2090 | 1.69 |  | 7.17 | 3.57 | fold induction at 3.3 mg/kg [3, 6]: 5.01
6 | Cn1cc(-c2ccc3c(N4CCN(C(=O)OCCc5ccccc5)CC4)cnn3c2)cn1 [Compound 30, 2-phenylethyl-4-[6-(1-methyl-1H-pyrazol-4-yl)pyrazolo[1,5-a]pyridin-3-yl]piperazine-1-carboxylate] | 998 | 1.78 |  | 6.05 | 3.25 | fold induction at 3.3 mg/kg [3, 6]: 9.91
7 | Cn1cc(-c2ccc3c(N4CCN(c5ncc(C(C)(O)c6ccc(F)cc6)cn5)CC4)cnn3c2)cn1 (stereo not drawn) [Compound 46, 1-(4-fluorophenyl)-1-(2-{4-[6-(1-methyl-1H-pyrazol-4-yl)pyrazolo[1,5-a]pyridin-3-yl]piperazin-1-yl}pyrimidin-5-yl)ethanol] | 122 | 3.97 |  | 6.86 |  | GPR17 Fold Induction (Over Vehicle) ([3]; dose not assignable from Table 10, GPR17+ cells in brain, mice): 11.15 fold
8 | Cn1cc(-c2ccc3c(N4CCN(c5ncc(Cc6ccc(F)cc6)cn5)CC4)cnn3c2)cn1 [Compound 66, 3-{4-[5-(4-fluorobenzyl)pyrimidin-2-yl]piperazin-1-yl}-6-(1-methyl-1H-pyrazol-4-yl)pyrazolo[1,5-a]pyridine] | 693 | 26.50 | 10.4 | 5.07 |  | 
9 | Cn1cc(-c2cnc3c(N4CCN(c5ncc(Cc6ccccc6)cn5)CC4)cnn3c2)cn1 [Compound 7, 3-[4-(5-benzylpyrimidin-2-yl)piperazin-1-yl]-6-(1-methyl-1H-pyrazol-4-yl)pyrazolo[1,5-a]pyrimidine] | 2420 | 2.1 |  | 7.38 | 4.40 and 4.45 | fold induction at 10 mg/kg [3, 6]: 12.9
10 | COc1cccc(Cc2cnc(N3CCN(c4cnn5cc(-c6cnn(C)c6)ccc45)CC3)nc2)c1 [Compound 54, 3-{4-[5-(3-methoxybenzyl)pyrimidin-2-yl]piperazin-1-yl}-6-(1-methyl-1H-pyrazol-4-yl)pyrazolo[1,5-a]pyridine] | 630 | 2.14 | 1.24 | 6.81 |  | fold induction at 30 mg/kg [3, 6]: 3.48
11 | CC(OC(=O)N1CCN(c2cnn3cc(-c4cnn(C)c4)ccc23)CC1)c1ccc(Cl)cc1 (stereo not drawn) [Compound 265, 1-(4-chlorophenyl)ethyl 4-(6-(1-methyl-1H-pyrazol-4-yl)pyrazolo[1,5-a]pyridin-3-yl)piperazine-1-carboxylate] |  | 20.78 | 7.92 | 7.72 |  | IC50 Values on PDGFRα Kinase Inhibition, IC50 (nM) [1, 7]: BLQ
12 | Cn1cc(-c2ccc3c(N4CCN(C(=O)OCC(C)(C)C)CC4)cnn3c2)cn1 [Compound 3, 2,2-dimethylpropyl 4-[6-(1-methyl-1H-pyrazol-4-yl)pyrazolo[1,5-a]pyridin-3-yl]piperazine-1-carboxylate] | 883 | 1.56 |  | 4.12 | 3.69 | IC50 ([1]; 20 ng purified PDGFRα, Poly (Glu4Tyr1) substrate, two hours, 11-point dose response, read-out: IC50 Values on PDGFRα Kinase Inhibition): < 1000 nM; fold induction at 3.3 mg/kg [3, 6]: 1.45
13 | c1ccc(Cc2cnc(N3CCN(c4cnn5cc(-c6cn[nH]c6)ccc45)CC3)nc2)cc1 [Compound 255, 3-[4-(5-benzylpyrimidin-2-yl)piperazin-1-yl]-6-(1H-pyrazol-4-yl)pyrazolo-[1,5-a]pyridine] | 1140 | 2.58 |  | 8.56 |  | 
14 | Cn1cc(-c2ccc3c(NC4CN(c5ncc(Cc6ccccc6)cn5)C4)cnn3c2)cn1 [Compound 131, N-(1-(5-benzylpyrimidin-2-yl)azetidin-3-yl)-6-(1-methyl-1H-pyrazol-4-yl)pyrazolo[1,5-a]pyridin-3-amine] | 3880 | 2.49 |  | 6.36 |  | 
15 | C=C(c1ccc(F)cc1)c1cnc(N2CCN(c3cnn4cc(-c5cnn(C)c5)ccc34)CC2)nc1 [Compound 256, 3-(4-(5-(1-(4-fluorophenyl)vinyl)pyrimidin-2-yl)piperazin-1-yl)-6-(1-methyl-1H-pyrazol-4-yl)pyrazolo[1,5-a]pyridine] | 3200 | 8.70 |  | 4.15 |  | 
16 | Cn1cc(-c2ccc3c(C4=CCN(c5ncc(Cc6ccccc6)cn5)C4)cnn3c2)cn1 [Compound 51, 3-[1-(5-benzylpyrimidin-2-yl)-2,5-dihydro-1H-pyrrol-3-yl]-6-(1-methyl-1H-pyrazol-4-yl)pyrazolo[1,5-a]pyridine] | 423 | 2.41 |  | 5.14 | 2.52 | 
17 | CC(=O)OC(c1ccc(F)cc1)c1cnc(N2CCN(c3cnn4cc(-c5cnn(C)c5)ccc34)CC2)nc1 (stereo not drawn) [Compound 264, (4-fluorophenyl)(2-(4-(6-(1-methyl-1H-pyrazol-4-yl)pyrazolo[1,5-a]pyridin-3-yl)piperazin-1-yl)pyrimidin-5-yl)methyl acetate] | 26.8 | 5.22 |  | 6.72 |  | 
18 | C[C@@H](OC(=O)N1CCN(c2cnn3nc(-c4cnn(C)c4)ccc23)CC1)c1ccccc1 [Compound 50, (R)-1-phenylethyl 4-(6-(1-methyl-1H-pyrazol-4-yl)pyrazolo[1,5-b]pyridazin-3-yl)piperazine-1-carboxylate] | 3140 | 1.82 |  | 5.00 |  | 
19 | CC(C)(C)OC(=O)N1CCN(c2cnn3cc(-c4cnn(C5CCOCC5)c4)ccc23)CC1 [Compound 235] | 467 | 10.35 |  | 9.32 |  | 

Source: patent US20250129067A1 (Progentos Therapeutics, Inc., priority 2021, published 2025)
